Data: US20030191131A1, “Use of organic compounds” (priority 2002, published 2003)

Assays:
[1] = tested on: constitutively activated mutant canine KIT (BR and C2 cells); assay: KIT autophosphorylation in BR and C2 cell lysates (anti-P-Tyr Western immunoblot); assay type: cell-based
Text: Antibodies: A polyclonal rabbit anti-KIT antibody (c-kit Ab-1) was used at a dilution of 1:500 (c-kit Ab-1; Oncogene, Cambridge, Mass.). An anti-phosphotyrosine antibody (PY20) was used at a dilution of 1:1000 (PY20 Transduction Laboratories; Lexington, Ky.). Peroxidase conjugated goat anti-mouse antibody was used at a dilution of 1:5000 and goat anti-rabbit antibody at a dilution of 1:10,000 (Pierce; Rockford, Ill.).
(§1) Cell lines: BR and C2 canine mastocytoma cells lines were obtained from Dr. George Caughey (University of California at San Francisco, San Francisco, Calif.). Both cell lines were maintained in DMEM supplemented with 2% bovine calf, 1 mM L-glutamine, 12.5 mM HEPES (pH 7.5), 0.25 mg/mL Histidine, 1% Penicillin-Streptomycin and 1% fungizone. The BR and C2 cells were derived from canine mast cell tumors and were originally established in long-term culture after initial passaging in immunodeficient mice (DeVinney et al., Am. J. Respir. Cell Mol. Biol., Vol. 3, No. 5, pp. 413-420 (1990); Lazarus et al., Am. J. Physiol., Vol. 251, No. 6, Pt 1, pp. C935-C944 (1986)). The BR cell line has a point mutation (T1752C) resulting in a Leucine to Proline substitution at amino acid 575 (juxtamembrane domain). The C2 cell line has an internal tandem duplication (ITD) of the KIT juxtamembrane region.
Protein lysates: BR and C2 cells were washed ×2 in PBS and then quiesced in Optimem (Gibco-BRL) at 37° C. for approximately 18 hours.
Dermatol., Vol.114, No. 2, pp. 392-394 (2000)).

[2] = tested on: BR or C2 cells; assay: Proliferation of BR or C2 cells (cell lines not separated); assay type: cell-based, canine
Protocol: as §1

[3] = tested on: cutaneous mast cell tumors; assay: Prospective case series of pet dogs with measurable cutaneous mast cell tumors; assay type: in vivo, dog; settings: 25 mg/kg PO QD x 60 days of SALT I
Protocol: The study patients are pet dogs with measurable and histologically-confirmed mast cell tumors. Cases are limited to those with measurable lesions amenable to biopsy.
Pretreatment evaluation of all cases include physical examination, complete blood count, buffy coat, serum biochemistry, urinalysis, serum bile acids (fasting and post-prandial), documentation of regional lymph node size, abdominal radiographs and abdominal ultrasound. The treatment regimen is 25 mg/kg PO QD×60 days of SALT I.
Treatment is continued in all cases for 60 days unless disease progression is noted. In cases experiencing partial response or complete response ongoing therapy for an additional 60 days may be considered. Cases successfully completing therapy are eligible for repeat entry to study.
The efficacy of COMPOUND I is assessed against measurable cutaneous mast cell tumors, using clinical endpoints. Biological endpoints may be taken from serial biopsies collected from cutaneous tumors and from blood samples available through the treatment course.
Clinical endpoints include response rate of measurable tumors, objective response against measurable tumor, and time to progression of measurable tumor. All adverse side effects will be recorded.
Furthermore, it may be observed that more animals obtaining treatment show Stable Disease (SD), while less treated animals show Progressive Disease (PD). […]

Cc1ccc(NC(=O)c2ccc(CN3CCN(C)CC3)cc2)cc1Nc1nccc(-c2cccnc2)n1 [COMPOUND I]
Inhibition of KIT autophosphorylation ([1]; 0.1 μM dose, BR or C2 cells): Near complete inhibition
Autophosphorylation of c-kit ([1]; 0.001-0.01 μM doses, BR or C2 cells): Limited autophosphorylation
Inhibition of KIT autophosphorylation ([1]; 10 and 1.0 μM doses, BR or C2 cells, 90 minutes incubation, no SLF): complete inhibition
Potency on mutated c-kit receptor compared with wild type c-kit receptor ([1]; BR and C2 cells against literature wild type value): more potent inhibitor of this mutated receptor than it is of the wild type c-kit receptor
Expression of c-kit protein (membrane reprobed with anti-c-kit antibody) ([1]; treated BR or C2 cells): no change in expression of c-kit protein
Inhibition of proliferation ([2]; 0.001-0.01 μM, 48-72 hours): Partial inhibition
Morphologic observations of inhibitor treated cells ([2]; data not shown): changes consistent with apoptosis
Objective Tumors Responses [3]: are observed
